This is an account of results in US5643908A, “Collagenase inhibitor” (Sankyo Company, Limited, priority 1991, dated 1997).

In one assay the test system is collagenase. Conditions: cited from earlier work.
Another assay deals with bacteria. The following applies: cited from earlier work.
Assay [1] deals with T1, type IV collagenases (Homo sapiens, UniProt P08253).
T1 construct: type IV collagenases prepared from a serum-free culture medium of human melanoma cells; endogenous in cells
T1 sequence (P08253 110-660): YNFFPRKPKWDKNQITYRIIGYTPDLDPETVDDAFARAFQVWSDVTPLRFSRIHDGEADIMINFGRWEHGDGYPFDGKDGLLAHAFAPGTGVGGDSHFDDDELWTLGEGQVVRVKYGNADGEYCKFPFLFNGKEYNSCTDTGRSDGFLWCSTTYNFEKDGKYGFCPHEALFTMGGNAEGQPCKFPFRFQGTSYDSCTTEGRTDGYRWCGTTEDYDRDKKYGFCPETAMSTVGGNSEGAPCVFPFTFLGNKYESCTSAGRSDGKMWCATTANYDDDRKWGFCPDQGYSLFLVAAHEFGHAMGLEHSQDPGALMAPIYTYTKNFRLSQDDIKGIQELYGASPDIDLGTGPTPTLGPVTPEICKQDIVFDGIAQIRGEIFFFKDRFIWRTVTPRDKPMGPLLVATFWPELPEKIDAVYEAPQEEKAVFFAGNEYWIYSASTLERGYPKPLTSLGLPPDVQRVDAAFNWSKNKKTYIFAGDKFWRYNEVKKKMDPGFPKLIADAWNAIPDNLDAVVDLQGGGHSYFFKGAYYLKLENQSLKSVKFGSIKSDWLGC
The assay is described as follows: Inhibitory activity on type IV collagenases: cleavage of radio-labelled type IV collagen. The format is biochemical. The following applies: type IV collagenases from serum-free culture medium of human melanoma cells; radio-labelled type IV collagen from mouse EHS tumor as substrate. As for the experimental part: The activity of type IV collagenase was assayed according to the method of Salo et al. [J. Biol. Chem., Vol. 258, 3058-3063 (1983)].
In detail, the activity was assayed by measuring the cleavage of collagen by using type IV collagenases prepared from a serum-free culture medium of human melanoma cells, and type IV collagen prepared from mouse EHS tumor radio-labelled as a substrate.
The inhibitory activity on type IV collagenases was measured by calculating the inhibition percent of the enzyme reaction, in which the test samples were added to the reaction mixture.
The results (expressed as I50) is shown below.

In assay [2] the test system is type IV collagenases. The following applies: cited from earlier work.
The subject of a further assay is cancer metastasis. The following applies: animal experiment; cited from earlier work.
Another assay deals with aminopeptidase M. Conditions: low concentrations; cited from earlier work.

Residues, ends and D or L forms follow the SMILES beside them. *: point of attachment. Cbz = O=C(OCc1ccccc1)*; NHOH = ON*

As for `CCCCCC(CC(=O)NO)C(=O)N1NCCCC1C(=O)NC(CC(C)C)C(C)=O` (stereo not drawn), in the assay with collagenase, the collagenase inhibiting activity entry was “collagenase inhibiting activities”. Besides, the antibacterial activity entry in the assay on bacteria is on record as “antibacterial”. In the case of `CCCCCC(CC(=O)NO)C(=O)N1NCCCC1C(=O)NC(C(=O)CC)C(C)CC` (stereo not drawn), in the assay on bacteria, the antibacterial activity result is reported as “antibacterial activity”.

Broadly, the IC50 is the midpoint of a concentration-inhibition curve. Low values mean greater potency, high ones weaker potency. For `CCCCC[C@H](CC(=O)NO)C(=O)N1NCCC[C@H]1C(=O)N[C@H](C(=O)N(C)OC)C(C)C` [Example 3, 2-(S)-[N^2-[2-(R)-(Hydroxyaminocarbonyl)methyl-1-oxoheptyl]-(S)-piperazyl]aminoisovaleric acid N-methyl-N-methoxyamide], the IC50 against type IV collagenases [1] was 330 nM. On type IV collagenases [1], `CCCCC[C@H](CC(=O)NO)C(=O)N1NCCC[C@H]1C(=O)N[C@H](C(=O)OC)C(C)C` [Example 4, Methyl 2-(S)-[N^2-[2-(R)-(Hydroxyaminocarbonyl)methyl-1-oxoheptyl]-(S)-piperazyl]aminoisovalerate] gave an IC50 of 350 nM. `CCCCC[C@H](CC(=O)NO)C(=O)N1NCCC[C@H]1C(=O)N[C@H](C(=O)OC(C)(C)C)C(C)C` [Example 5] registered an IC50 against type IV collagenases [1] of 360 nM.

On type IV collagenases [1], `CCCCCC[C@H](CC(=O)NO)C(=O)N1NCCC[C@H]1C(=O)NC` [Example 14, N^2-[2-(R)-(Hydroxyaminocarbonyl)methyl-1-oxooctyl]-(S)-piperazic acid N-methylamide] returned an IC50 of 82 nM. This IC50 is about 4.4-fold lower than that of the compound before. The same measure, in the same setting: next, `CCCCCCC[C@H](CC(=O)NO)C(=O)N1NCCC[C@H]1C(=O)NC` [Example 16, N^2-[2-(R)-(Hydroxyaminocarbonyl)methyl-1-oxononyl]-(S)-piperazic acid N-methylamide]: 42 nM; `CCCCCCC[C@H](CC(=O)NO)C(=O)N1NCCC[C@H]1C(=O)N(C)C` [Example 17, N^2-[2-(R)-(Hydroxyaminocarbonyl)methyl-1-oxononyl]-(S)-piperazic acid N,N-dimethylamide]: 270 nM. Still for that read-out and setting: next, `CCCCCCCCCC[C@H](CC(=O)NO)C(=O)N1NCCC[C@H]1C(=O)NC` [Example 18, N^2-[2-(R)-(Hydroxyaminocarbonyl)methyl-1-oxododecyl]-(S)-piperazic acid N-methylamide]: 27 nM; `CCCCCCCCCC[C@H](CC(=O)NO)C(=O)N1NCCC[C@H]1C(=O)N(C)C` [Example 19, N^2-[2-(R)-(Hydroxyaminocarbonyl)methyl-1-oxododecyl]-(S)-piperazic acid N,N-dimethylamide]: 80 nM; `CNC(=O)[C@@H]1CCCNN1C(=O)[C@H](CCc1ccccc1)CC(=O)NO` [Example 20, N^2-[2-(R)-(Hydroxyaminocarbonyl)methyl-1-oxo-4-phenylbutyl]-(S)-piperazic acid N-methylamide]: 73 nM. Turning to `CN(C)C(=O)[C@@H]1CCCNN1C(=O)[C@H](CCc1ccccc1)CC(=O)NO` [Example 21, N^2-[2-(R)-(Hydroxyaminocarbonyl)methyl-1-oxo-4-phenylbutyl]-(S)-piperazic acid N,N-dimethylamide], the IC50 against type IV collagenases [1] amounted to 280 nM. Against the preceding compound, the IC50 is about 3.8-fold higher. At type IV collagenases [1], `CCCCC[C@H](CC(=O)NO)C(=O)N1NCCC[C@H]1C(=O)NCC` [Example 27, N^2-[2-(R)-(Hydroxyaminocarbonyl)methyl-1-oxoheptyl]-(S)-piperazic acid N-ethylamide] returned a concentration for half-maximal inhibition (IC50) of 160 nM. In turn, `CCCCC[C@H](CC(=O)NO)C(=O)N1NCCC[C@H]1C(N)=O` [Example 29, N^2-[2-(R)-(Hydroxyaminocarbonyl)methyl-1-oxoheptyl]-(S)-piperazylamide] had an IC50 on type IV collagenases [1] of 250 nM. Still for that read-out and setting: next, `CCCCC[C@H](CC(=O)NO)C(=O)N1NCCC[C@H]1C(=O)NCC(C)C` [Example 30, N^2-[2-(R)-(Hydroxyaminocarbonyl)methyl-1-oxoheptyl]-(S)-piperazic acid N-isobutylamide]: 240 nM. The same measure, in the same setting: with `CC(C)C[C@H](CC(=O)NO)C(=O)N1NCCC[C@H]1C(=O)N(C)C` [Example 32, N^2-[2-(R)-(Hydroxyaminocarbonyl)methyl-1-oxo-4-methyl-pentyl]-(S)-piperazic acid N,N-dimethylamide] the figure was 750 nM. As to `CCCCCCCC[C@H](CC(=O)NO)C(=O)N1NCCC[C@H]1C(=O)N(C)C` [Example 33, N^2-[2-(R)-(Hydroxyaminocarbonyl)methyl-1-oxodecyl]-(S)-piperazic acid N,N-dimethylamide], at type IV collagenases [1], the 50% inhibitory concentration (IC50) was found to be 64 nM.

Turning to `CCCCCCCC[C@H](CC(=O)NO)C(=O)N1NCCC[C@H]1C(=O)NCC` [Example 34, N^2-[2-(R)-(Hydroxyaminocarbonyl)methyl-1-oxodecyl]-(S)-piperazic acid N-ethylamide], on type IV collagenases [1], the 50% inhibitory concentration (IC50) stood at 37 nM.

At type IV collagenases [1], `CCCCCCCC[C@H](CC(=O)NO)C(=O)N1NCCC[C@H]1C(=O)N(CC)CC` [Example 35, N^2-[2-(R)-(Hydroxyaminocarbonyl)methyl-1-oxodecyl]-(S)-piperazic acid N,N-diethylamide] returned an IC50 of 200 nM. Consider `CCCCC[C@H](CC(=O)NO)C(=O)N1NCCC[C@H]1C(=O)N[C@H](C(=O)CC)[C@@H](C)CC` [Example 108, reference compound], for which, on type IV collagenases [1], it took 1400 nM to reach half-maximal inhibition (IC50). The compound `CCCCC[C@H](CC(=O)NO)C(=O)N1NCCC[C@H]1C(=O)N[C@@H](C(=O)CC)[C@H](C)CC` [Example 109, N^2-[2-(R)-(Hydroxyaminocarbonyl)methyl-1-oxoheptyl]-(S)-piperazic acid (4R,5R)-5-methyl-3-oxoheptan-4-ylamide, reference compound] registered a half-inhibitory concentration (IC50) on type IV collagenases [1] of 4300 nM.

Regarding `CCCCC[C@H](CC(=O)NO)C(=O)N1NCCC[C@@H]1C(=O)N[C@H](C(=O)CC)[C@@H](C)CC` [Example 110, N^2-[2-(R)-(Hydroxyaminocarbonyl)methyl-1-oxoheptyl]-(R)-piperazic acid (4S,5S)-methyl-3-oxoheptan-4-ylamide, reference compound], on type IV collagenases [1], it took 18500 nM to reach half-maximal inhibition (IC50).

With `CNC(=O)[C@H](Cc1ccc(OC)cc1)NC(=O)[C@@H](CC(=O)NO)CC(C)C` [SC 44463], the “inhibitor relatively specific to type IV collagenases” value in the assay on type IV collagenases [2] is reported as “inhibitor relatively specific to type IV collagenases”. Moreover, the “inhibitory activity on cancer metastasis” value in the assay with cancer metastasis is “confirmed to exhibit an inhibitory activity on cancer metastasis”. On to `CCCCC[C@H](CC(=O)NO)C(=O)N[C@H](C(=O)N1CCC[C@H]1CO)C(C)C` [actinonin], for which, in the assay on aminopeptidase M, the “inhibition of aminopeptidase M” value is given as “inhibit aminopeptidase M at low concentrations”. As to `CC(C)C[C@H](NC(=O)[C@@H]1CCCN1C(=O)OCc1ccccc1)C(=O)NCC(=O)NO` [benzyloxycarbonyl propyl-leucyl-glycylhydroxamic acid] (Cbz-Pro-Leu-Gly-{NHOH}), the collagenase inhibiting activity entry with collagenase was “showing collagenase inhibiting effects”.
